Counter-ions that a name gives are not always drawn. Like-named read-outs stand apart in the source and are kept apart here.
Key:
skin erythema = experiment: Activity for inhibiting skin erythema caused by ultraviolet radiation; format: in vivo, albino guinea pig (Hartley strain, female, 7-8 week age); conditions: for inhibition in vivo at 3 %: Cavia porcellus; for 50% inhibitory concentration (IC50) for inhibiting the skin erythema: three concentrations within 0.1 to 10%
Method: The hairs covering in the back of albino guinea pig (Hartley strain, female, 7-8 week age) were shaved by using an electric hair clippers and a shaver. In the next day, the guinea pig was fixed in Bowlman's cage, then a light shield tape (adhesive plaster for patch test), having 4 round holes of 1.5 cm in diameter was adhered on the hair clipped portion so as to provide 4 sites (round holes) to be exposed to the ultraviolet rays. […] Each one of the test sample solutions was prepared by dissolving each test compounds in three kinds of concentrations within 0.1 to 10%, and applied.

[1] = system: skin homogenate of guinea pig; experiment: Activity for inhibiting the formation of lipid peroxides (ultraviolet-B irradiated skin homogenate, TBA method); format: biochemical, albino guinea pig (Hartley strain, female); conditions: test compound 10^-4 M; UV 9.5 mW/cm^2, 60 minutes
Method: The activity for inhibiting the formation of lipid peroxides which are increasingly formed by exposed to the ultraviolet-B radiation to the skin homogenate of guinea pig was determined by a procedure of thiobarbituric acid method (TBA method).
The activity for inhibiting the formation of lipid peroxides can be evaluated by degree of decreasing the optical absorbance of the condensate of thus formed malondialdehyde with thiobarbituric acid, by adding a test sample of the cyclic amide derivative of the present invention to the homogenate.
That is, the hairs covering in the back of an albino guinea pig (Hartley strain, female) were clipped by using an electric hair clippers under anesthesia. After the enucleation of the hair clipped portion of the skin, the subcutaneous tissue of this skin was removed in cold physiological saline. Distilled water in an amount of 9 times by weight of the skin tissue was added to this skin subcutaneous tissue, then was subjected to homogenation and centrifugation (600 g, for 5 minutes) to obtain the supernatant liquid. 5 Microliters each of test sample solutions of various concentrations was added to 0.5 ml each of the supernatant liquid, then the ultraviolet ray in the intensity of 9.5 mW/cm^2 was irradiated for 60 minutes by using fluorescent lamps (TOSHIBA FL-20SE, manufactured by Toshiba Corporation) as a light source. As to the reference sample solution, the solvent for dissolution of the test compound was used in place of the test sample solution. After ultraviolet radiation, the amount of lipid peroxide being formed in the sample solution (TBA value) was measured by TBA method (cf. Analytical Biochemistry, 1979, Vol. 95, pp. 351-358), and the inhibition rate of lipid peroxide formation shown by the test sample was calculated by the following formula: [formula]

[2] = 3% concentration of test compound, 10 μl topical, UV 1.3-1.5 mW/cm^2 for 30 minutes, measured 24 hours later, read-out: Rate of activity for inhibiting the skin erythema

Which results are given for `C=CCc1cc2c(c(CC=C)c1O)OCC(=O)N2CC=C` [Example 36, 7-hydroxy-4,6,8-triallyl-3(2H)-1,4-benzoxazinone]?
inhibition in vivo at 3 % (skin erythema; [2]): 26%; 50% inhibitory concentration (IC50) for inhibiting the skin erythema (skin erythema; topical): 9.8 concentration in %

Which “Inhibition rate of lipid peroxide formation” value (shortened to “Inhibition rate”) [1] does the source give for `C=CCOc1cc2c(cc1CC=C)N(CC=C(C)C)C(=O)CC2` [Example 17, 7-allyl-6-allyloxy-3,4-dihydro-1-prenyl-2(1H)-quinolinone] here?
The value was 85%.

For `C=CCc1cc2c(c(CC=C)c1O)CCC(=O)N2CCCCN(CC)CC` [Example 86, 5,7-Diallyl-1-(4-diethylaminobutyl)-3,4-dihydro-6-hydroxy-2(1H)-quinolinone.oxalate], which “Inhibition rate” value [1] is on record?
The value was 71%.

With `C=CCc1cc2c(c(CC=C)c1O)CCC(=O)N2CC=C` [Example 46] as the compound, how does the “Inhibition rate” value [1] read?
Its value is 95%.

Which inhibition in vivo at 3 % (skin erythema; [2]) does the source give for `C=CCc1cc2c(c(CC=C)c1O)CCC(=O)N2CCCCl` [Example 42, 1-(3-chloropropyl)-5,7-diallyl-3,4-dihydro-6-hydroxy-2(1H)-quinolinone] here?
Its inhibition in vivo at 3 % is 45%.

With `Cc1c(C)c2c(c(C)c1O)CCC(C)(CCCC(C)CCCC(C)CCCC(C)C)O2` (stereo not drawn) [Vitamin E, α-tocopherol, reference compound] as the compound, how does the “Inhibition rate” value [1] read?
Its value is 77-79%.

With `C=CCc1cc(CN2C(=O)CCc3c2cc(CC=C)c(O)c3CC=C)ccc1O` [Example 53] as the compound, how does the “Inhibition rate” value [1] read?
Its value is 95%.

`C=CCc1cc2c(c(CC=C)c1O)CCC(=O)N2CCCCCCCCCCCC` [Example 102] was tested. Which inhibition in vivo at 3 % (skin erythema; [2]) did it give?
The inhibition in vivo at 3 % was 57%.

And the “50% inhibitory concentration (IC50) for inhibiting the skin erythema” value (shortened to “50% inhibitory concentration (IC50)”) (skin erythema; topical)?
Its value is 3.7 concentration in %.

How did the “Inhibition rate” value [1] turn out when `C=CCc1cc2c(c(CC=C)c1O)CCC(=O)N2CCCNCCOC` [Example 74] was run?
Its value is 68%.

For `C=CCc1cc2c(c(CC=C)c1O)CCC(=O)N2CCCCP(=O)(OCC)OCC` [Example 93, 5,7-diallyl-1-(4-diethoxy-phosphorylbutyl)-3,4-dihydro-6-hydroxy-2(1H)-quinolinone], which “Inhibition rate” value [1] is on record?
Its value is 73%.

For `C=CCc1cc2c(c(CC=C)c1O)CCC(=O)N2Cc1ccc(C)c(C)c1` [Example 54], which “Inhibition rate” value [1] is on record?
The value was 96%.

Which inhibition in vivo at 3 % (skin erythema; [2]) does the source give for `C=CCc1cc2c(c(CC=C)c1O)CCC(=O)N2CCCCNCCCC` [Example 84, 1-(4-n-butylaminobutyl)-5,7-diallyl-3,4-dihydro-6-hydroxy-2(1H)-quinolinone.oxalate] here?
The inhibition in vivo at 3 % was 31%.

With `C=CCc1cc2c(c(CC=C)c1O)CCC(=O)N2CCCCC(=O)OC` [Example 105] as the compound, how does the inhibition in vivo at 3 % (skin erythema; [2]) read?
The inhibition in vivo at 3 % was 44%.

`C=CCc1ccc2c(c1O)N(CCCCCCCCCCO)C(=O)CC2` [Example 65] was tested. Which “Inhibition rate” value [1] did it give?
Its value is 79%.

For `C=CCc1cc2c(c(CC=C)c1O)CCC(=O)N2CC(=O)OCC` [Example 57, 5,7-diallyl-1-(ethoxy-carbonylmethyl)-3,4-dihydro-6-hydroxy-2(1H)-quinolinone], which “Inhibition rate” value [1] is on record?
The value was 78%.

With `C=CCc1cc2c(c(CC=C)c1O)CCC(=O)N2c1ccc(OC)cc1` [Example 32, 5,7-diallyl-3,4-dihydro-6-hydroxy-1-(4-methoxyphenyl)-2(1H)-quinolinone] as the compound, how does the “Inhibition rate” value [1] read?
The value was 87%.

For `C=CCc1cc2c(c(CC=C)c1O)CCC(=O)N2CCCCOC(C)=O` [Example 104], which inhibition in vivo at 3 % (skin erythema; [2]) is on record?
Its inhibition in vivo at 3 % is 31%.

What does the source list for `C=CCc1cc2c(c(CC=C)c1O)CCC(=O)N2CC=C(C)C` [Example 27, 5,7-diallyl-3,4-dihydro-6-hydroxy-1-prenyl-2(1H)-quinolinone]?
Inhibition rate of lipid peroxide formation [1]: 82%; inhibition in vivo at 3 % (skin erythema; [2]): 60%; 50% inhibitory concentration (IC50) for inhibiting the skin erythema (skin erythema; topical): 1.3 concentration in %

What does the source list for `C=CCc1cc2c(cc1O)CCC(=O)N2CC=C(C)C` [Example 10, 7-allyl-3,4-dihydro-6-hydroxy-1-prenyl-2(1H)-quinolinone]?
Inhibition rate of lipid peroxide formation [1]: 82%; inhibition in vivo at 3 % (skin erythema; [2]): 38%

“5,7-diallyl-3,4-dihydro-6-hydroxy-1-(2-hydroxybutyl)-2(1H)-quinolinone [Example 110]” was tested. Which “Rate of activity for inhibiting the skin erythema” value (skin erythema; 3% concentration of test compound, 10 μl topical, UV 1.3-1.5 mW/cm^2 for 30 minutes, measured 24 hours later) did it give?
The value was 44%.

How did the “Inhibition rate” value [1] turn out when `C=CCc1cc2c(c(CC=C)c1O)CCC(=O)N2` [Example 26, 5,7-diallyl-3,4-dihydro-6-hydroxy-2(1H)-quinolinone] was run?
The value was 80%.

What about the inhibition in vivo at 3 % (skin erythema; [2]) of the same compound?
Its inhibition in vivo at 3 % is 36%.

How did the “Inhibition rate” value [1] turn out when `C=CCOc1ccc(CN2C(=O)CCc3c2cc(CC=C)c(O)c3CC=C)cc1` [Example 51] was run?
The value was 95%.

`C=CCc1cc2c(c(CC=C)c1O)CCC(=O)N2CC(=O)O` [Example 76, 1-(carboxymethyl)-5,7-diallyl-3,4-dihydro-6-hydroxy-2(1H)-quinolinone] was tested. Which “Inhibition rate” value [1] did it give?
Its value is 68%.

What about the inhibition in vivo at 3 % (skin erythema; [2]) of the same compound?
The inhibition in vivo at 3 % was 50%.

And the “50% inhibitory concentration (IC50)” value (skin erythema; topical)?
Its value is 3.1 concentration in %.

`C=CCc1cc2c(c(CC=C)c1O)CCC(=O)N2C1C=CCCC1` (centres unmarked) [Example 45] was tested. Which “Inhibition rate” value [1] did it give?
The value was 95%.

`C=CCc1cc2c(c(CC=C)c1O)CCC(=O)N2CC(N)=O` [Example 77, 1-(carbamoylmethyl)-5,7-diallyl-3,4-dihydro-6-hydroxy-2(1H)-quinolinone] was tested. Which inhibition in vivo at 3 % (skin erythema; [2]) did it give?
The inhibition in vivo at 3 % was 50%.

And the “50% inhibitory concentration (IC50)” value (skin erythema; topical)?
The value was 2.7 concentration in %.

What does the source list for `C=CCc1cc2c(c(CC=C)c1O)CCC(=O)N2CC(=O)[O-].[Na+]` [Example 113, sodium (5,7-diallyl-6-hydroxy-1,2,3,4-tetrahydro-2-oxoquinolin-1-yl)acetate]?
inhibition in vivo at 3 % (skin erythema; topical, 24 h, read-out: Rate of activity for inhibiting the skin erythema, 3% concentration of test compound, 10 μl topical, UV 1.3-1.5 mW/cm^2 for 30 minutes, measured 24 hours later): 52%; 50% inhibitory concentration (IC50) for inhibiting the skin erythema (skin erythema; topical): 2.5 concentration in %

`C=CCc1cc2c(c(CC=C)c1O)CCC(=O)N2CCCCNC(C)(C)CO` [Example 85, 5,7-Diallyl-3,4-dihydro-6-hydroxy-1-[4-(2-hydroxy-1,1-dimethyl)ethylamino]butyl-2-(1H)-quinolinone. oxalate] was tested. Which inhibition in vivo at 3 % (skin erythema; [2]) did it give?
Its inhibition in vivo at 3 % is 39%.

With `C=CCc1cc2c(c(CC=C)c1O)NC(=O)CO2` [Example 35, 5,7-diallyl-6-hydroxy-3-(2H)-1,4-benzoxazinone] as the compound, how does the inhibition in vivo at 3 % (skin erythema; [2]) read?
Its inhibition in vivo at 3 % is 41%.

What about the “50% inhibitory concentration (IC50)” value (skin erythema; topical) of the same compound?
The value was 5.9 concentration in %.

With `C=CCc1cc2c(c(CC=C)c1O)CCC(=O)N2CCCn1cnnc1` [Example 88, 5,7-diallyl-3,4-dihydro-6-hydroxy-1-[3-(1,2,4-triazol-4-yl)propyl]-2(1H)-quinolinone] as the compound, how does the inhibition in vivo at 3 % (skin erythema; [2]) read?
Its inhibition in vivo at 3 % is 37%.

Which “Inhibition rate” value [1] does the source give for `C=CCc1cc(CN2C(=O)CCc3c2ccc(O)c3CC=C)cc(OC)c1O` [Example 78, 5-allyl-6-hydroxy-1-(3-allyl-4-hydroxy-5-methoxybenzyl)-3,4-dihydro-2(1H)-quinolinone] here?
The value was 95%.

For `C=CCc1cc2c(c(CC=C)c1O)N(CC=C)C(=O)CO2` [Example 37, 6-hydroxy-4,5,7-triallyl-3(2H)-1,4-benzoxazinone], which inhibition in vivo at 3 % (skin erythema; [2]) is on record?
The inhibition in vivo at 3 % was 39%.

And the “50% inhibitory concentration (IC50)” value (skin erythema; topical)?
The value was 7.7 concentration in %.

`C=CCOc1cc2c(cc1C=CC)N(CC=C(C)C)C(=O)CC2` [Example 80, 6-allyloxy-3,4-dihydro-1-prenyl-7-(1-propenyl)-2(1H)-quinolinone] was tested. Which “Inhibition rate” value [1] did it give?
Its value is 95%.

`C=CCc1cc2c(c(CC=C)c1O)CCC(=O)N2CCCN1CCCCC1` [Example 71, 5,7-diallyl-3,4-dihydro-6-hydroxy-1-[3-(piperidinopropyl)]-2(1H)-quinolinone] was tested. Which inhibition in vivo at 3 % (skin erythema; [2]) did it give?
The inhibition in vivo at 3 % was 45%.

`C=CCc1cc2c(c(CC=C)c1O)CCC(=O)N2CCCCn1ccnc1` [Example 87, 5,7-Diallyl-3,4-dihydro-6-hydroxy-1-[4-(imidazol-1-yl)butyl]-2-(1N)-quinolinone.oxalate] was tested. Which inhibition in vivo at 3 % (skin erythema; [2]) did it give?
The inhibition in vivo at 3 % was 28%.

For `C=CCc1cc2c(cc1O)CCC(=O)N2CCCCCCCCCCO` [Example 62], which “Inhibition rate” value [1] is on record?
Its value is 81%.

`C=CCc1cc2c(c(CC=C)c1O)CCC(=O)N2CCCN1CCOCC1` [Example 72] was tested. Which inhibition in vivo at 3 % (skin erythema; [2]) did it give?
The inhibition in vivo at 3 % was 33%.

For `C=CCc1cc2c(c(CC=C)c1O)NC(=O)CC2` [Example 25, 6,8-diallyl-3,4-dihydro-7-hydroxy-2(1H)-quinolinone], which “Inhibition rate” value [1] is on record?
The value was 78%.

For `C=CCc1cc2c(cc1O)N(CC=C(C)C)C(=O)CC2` [Example 11, 6-Allyl-3,4-dihydro-7-hydroxy-1-prenyl-2(1H)-quinolinone], which “Inhibition rate” value [1] is on record?
Its value is 70%.

How did the inhibition in vivo at 3 % (skin erythema; [2]) turn out when `C=CCc1cc2c(c(CC=C)c1O)CCC(=O)N2Cc1ccc(C(=O)OC)cc1` [Example 107, 5,7-Diallyl-3,4-dihydro-6-hydroxy-1-(4-methoxycarbonylbenzyl)-2(1H)-quinolinone] was run?
The inhibition in vivo at 3 % was 44%.

With `C=CCc1cc2c(c(CC=C)c1O)CCC(=O)N2Cc1ccc(OC)cc1` [Example 52] as the compound, how does the “Inhibition rate” value [1] read?
The value was 100%.

With `C=CCc1cc2c(c(CC=C)c1O)CCC(=O)N2CCCNC(=O)CCl` [Example 69, 1-(3-chloroacetylaminopropyl)-5,7-diallyl-3,4-dihydro-6-hydroxy-2(1H)-quinolinone] as the compound, how does the “Inhibition rate” value [1] read?
The value was 78%.

Reference: patent US5786367A, “Cyclic amide derivatives” (Otsuka Pharmaceutical Co., Ltd., priority 1994, dated 1998)
